# Measured values reported in patent US20200397686A1, “Methods of Reducing Burning or Stinging Sensation Attributed to Certain Compositions” (Monell Chemical Senses Center, priority 2018, published 2020).
# Test system: burning sensation in the mouth produced by use of LISTERINE mouthwash
# Experiment: Reduction of perceived burning sensation after rinsing with LISTERINE mouthwash with or without sophorolipid (six subjects)
# Format: in vivo, human
# Conditions: five of six subjects; treated mouthwash (sophorolipid added) vs control mouthwash with no sophorolipid; rinse held in mouth 10-60 seconds before spitting; self-reported
# Description: FIG. 1 is a graph that illustrates that a sophorolipid, having an oleic acid fatty acid tail, when added to mouthwash blocks or inhibits the burning sensation taste produced by use of LISTERINE® mouthwash. As discussed in Example 1 below, six subjects were instructed to rinse their mouths with either control (mouthwash with no sophorolipid) or the treated mouthwash (with 10 μM to 100 μM of the sophorolipid). Subjects reported the results as perceived burning sensation. Five of six subjects reported reductions of at least 50% in perceived burn produced by use of the treated mouthwash vs. use of the control.
# Six subjects were involved in the study.
# A final concentration of […] of the above noted sophorolipid was added to the mouthwash. The mouthwash with no sophorolipid added was the control. The subjects were told to rinse their mouths with either control or the treated mouthwash and hold it in their mouths for 10-60 seconds before spitting. Subjects were told to report the results as perceived burning sensation.
# As reported in the graph of FIG. 1, five of six subjects reported reductions of at least 50% in perceived burn produced by use of the […].
substance,measurement,value
sophorolipid,reduction in perceived burn,at least 50%
